According to the supplement of paper PMC4862054:
Several values for one entry are separate records, joined by “and”; a condition that tells them apart may be missing. Identical values can stand only once.

The compounds below were run on HDQ-P1 (assay: normalised viability (% of control), CellTiter-Blue; higher = more viable cells (about 100 = DMSO control)). Conditions: incubation time: 72 h.
Method: (§1)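 DSRT, CellTiter-Blue viability, 72 h incubation. Signal is normalised to DMSO and benzethonium chloride controls. Value is the normalised response at dose 8.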

| Structure (SMILES) | normalised viability [%] |
| --- | --- |
| COC1=C2C[C@@H](C)C[C@H](OC)[C@H](O)[C@@H](C)/C=C(\C)[C@H](OC(N)=O)[C@@H](OC)/C=C\C=C(/C)C(=O)NC(=CC1=O)C2=O [Geldanamycin] (3000 nM) | 16.7 |
| CC(C)(C)c1cc(NC(=O)Nc2ccc(-c3cn4c(n3)sc3cc(OCCN5CCOCC5)ccc34)cc2)no1 [Quizartinib] (300 nM) | 103 |
| CC[C@@]1(O)C(=O)OCc2c1cc1n(c2=O)Cc2cc3ccccc3nc2-1 [Camptothecin] (1500 nM) | 31.6 |
| COC1=CC(c2cc3ccccc3[nH]2)=N/C1=C\c1[nH]c(C)cc1C [Obatoclax] (3000 nM) | 39.3 |

The compounds below were run on CAL-148 in the same assay as above. Conditions: incubation time: 72 h.
Method: as §1

| Structure (SMILES) | normalised viability |
| --- | --- |
| C#Cc1cccc(Nc2ncnc3cc(OC)c(OCCCCCCC(=O)NO)cc23)c1 [CUDC-101] (3000 nM) | 11.9% |
| CS(=O)(=O)CCNCc1ccc(-c2ccc3ncnc(Nc4ccc(OCc5cccc(F)c5)c(Cl)c4)c3c2)o1 [Lapatinib] (3000 nM) | 80.7% and 87.1% |
| COc1cc(Nc2ncc(F)c(Nc3ccc4c(n3)NC(=O)C(C)(C)O4)n2)cc(OC)c1OC [R406] (3000 nM) | 105% |
| COC(=O)C[C@](O)(CCCC(C)(C)O)C(=O)O[C@@H]1C(OC)=C[C@]23CCCN2CCc2cc4c(cc2[C@H]13)OCO4 [Omacetaxine mepesuccinate] (3000 nM) | 5.63% |
| Cn1c(=O)c(F)c(Nc2ccc(I)cc2F)c2c(=O)n(C[C@@H](O)CO)cnc21 [TAK-733] (300 nM) | 77.9% |
| CCS(=O)(=O)c1cccc(-c2cc(C(=O)NC3CCN(C)CC3)c(C)c3[nH]c4ncc(C)cc4c23)c1 [TAK-901] (300 nM) | 74% |
| CCCC(CCC)C(=O)O [Valproic acid] (3000 nM) | 104% |
| O=P(O)(NCCCl)NCCCl [Ifosfamide mustard] (3000 nM) | 100% |
| COC1=C2C[C@@H](C)C[C@H](OC)[C@H](O)[C@@H](C)/C=C(\C)[C@H](OC(N)=O)[C@@H](OC)/C=C\C=C(/C)C(=O)NC(=CC1=O)C2=O [Geldanamycin] (3000 nM) | 10.8% |
| CC(C)(C)c1cc(NC(=O)Nc2ccc(-c3cn4c(n3)sc3cc(OCCN5CCOCC5)ccc34)cc2)no1 [Quizartinib] (300 nM) | 102% |
| CC[C@@]1(O)C(=O)OCc2c1cc1n(c2=O)Cc2cc3ccccc3nc2-1 [Camptothecin] (1500 nM) | 1.27% |
| COC1=CC(c2cc3ccccc3[nH]2)=N/C1=C\c1[nH]c(C)cc1C [Obatoclax] (3000 nM) | 59.6% |

The compounds below were run on DU-4475 in the same assay as above. Conditions: incubation time: 72 h.
Method: as §1

| Structure (SMILES) | normalised viability |
| --- | --- |
| C#Cc1cccc(Nc2ncnc3cc(OC)c(OCCCCCCC(=O)NO)cc23)c1 [CUDC-101] (3000 nM) | 35% |
| CS(=O)(=O)CCNCc1ccc(-c2ccc3ncnc(Nc4ccc(OCc5cccc(F)c5)c(Cl)c4)c3c2)o1 [Lapatinib] (3000 nM) | 117% and 105% |
| COc1cc(Nc2ncc(F)c(Nc3ccc4c(n3)NC(=O)C(C)(C)O4)n2)cc(OC)c1OC [R406] (3000 nM) | 92.6% |
| COC(=O)C[C@](O)(CCCC(C)(C)O)C(=O)O[C@@H]1C(OC)=C[C@]23CCCN2CCc2cc4c(cc2[C@H]13)OCO4 [Omacetaxine mepesuccinate] (3000 nM) | 3.79% |
| Cn1c(=O)c(F)c(Nc2ccc(I)cc2F)c2c(=O)n(C[C@@H](O)CO)cnc21 [TAK-733] (300 nM) | 0.88% |
| CCS(=O)(=O)c1cccc(-c2cc(C(=O)NC3CCN(C)CC3)c(C)c3[nH]c4ncc(C)cc4c23)c1 [TAK-901] (300 nM) | 76.5% |
| CCCC(CCC)C(=O)O [Valproic acid] (3000 nM) | 88% |
| O=P(O)(NCCCl)NCCCl [Ifosfamide mustard] (3000 nM) | 104% |
| COC1=C2C[C@@H](C)C[C@H](OC)[C@H](O)[C@@H](C)/C=C(\C)[C@H](OC(N)=O)[C@@H](OC)/C=C\C=C(/C)C(=O)NC(=CC1=O)C2=O [Geldanamycin] (3000 nM) | -0.3% |
| CC(C)(C)c1cc(NC(=O)Nc2ccc(-c3cn4c(n3)sc3cc(OCCN5CCOCC5)ccc34)cc2)no1 [Quizartinib] (300 nM) | 98.5% |
| CC[C@@]1(O)C(=O)OCc2c1cc1n(c2=O)Cc2cc3ccccc3nc2-1 [Camptothecin] (1500 nM) | 0.88% |
| COC1=CC(c2cc3ccccc3[nH]2)=N/C1=C\c1[nH]c(C)cc1C [Obatoclax] (3000 nM) | 78.5% |

Each compound was assayed on MDA-MB-453 in the same assay as above. Conditions: incubation time: 72 h.
Method: as §1

| Structure (SMILES) | normalised viability |
| --- | --- |
| C#Cc1cccc(Nc2ncnc3cc(OC)c(OCCCCCCC(=O)NO)cc23)c1 [CUDC-101] (3000 nM) | 4.71% |
| CS(=O)(=O)CCNCc1ccc(-c2ccc3ncnc(Nc4ccc(OCc5cccc(F)c5)c(Cl)c4)c3c2)o1 [Lapatinib] (3000 nM) | 33.4% and 38.4% |
| COc1cc(Nc2ncc(F)c(Nc3ccc4c(n3)NC(=O)C(C)(C)O4)n2)cc(OC)c1OC [R406] (3000 nM) | 110% |
| COC(=O)C[C@](O)(CCCC(C)(C)O)C(=O)O[C@@H]1C(OC)=C[C@]23CCCN2CCc2cc4c(cc2[C@H]13)OCO4 [Omacetaxine mepesuccinate] (3000 nM) | 5.64% |
| Cn1c(=O)c(F)c(Nc2ccc(I)cc2F)c2c(=O)n(C[C@@H](O)CO)cnc21 [TAK-733] (300 nM) | 70.8% |
| CCS(=O)(=O)c1cccc(-c2cc(C(=O)NC3CCN(C)CC3)c(C)c3[nH]c4ncc(C)cc4c23)c1 [TAK-901] (300 nM) | 60% |
| CCCC(CCC)C(=O)O [Valproic acid] (3000 nM) | 103% |
| O=P(O)(NCCCl)NCCCl [Ifosfamide mustard] (3000 nM) | 114% |
| COC1=C2C[C@@H](C)C[C@H](OC)[C@H](O)[C@@H](C)/C=C(\C)[C@H](OC(N)=O)[C@@H](OC)/C=C\C=C(/C)C(=O)NC(=CC1=O)C2=O [Geldanamycin] (3000 nM) | 8.03% |
| CC(C)(C)c1cc(NC(=O)Nc2ccc(-c3cn4c(n3)sc3cc(OCCN5CCOCC5)ccc34)cc2)no1 [Quizartinib] (300 nM) | 110% |
